Measurements taken from article PMC6130543, “Immunomodulatory activities of isolated compounds from the root-bark of Cussonia arborea” (Pharmaceutical Biology, 2017).
≈ marks a conversion by molar mass, not a printed value. Where two headings read alike, the source gives them in different places.

Assays:
[1] = tested on: serum opsonized zymosan activated whole blood phagocytes (intracellular ROS production); experiment: Oxidative burst assay (luminol-enhanced chemiluminescence); format: cell-based, human; settings: for IC50: read-out: ROS inhibition (IC50± SD µg/mL); for inhibition of production of ROS (in words): zymosan activated whole blood phagocytes, 1-100 µg/mL
[2] = tested on: whole blood lymphocyte proliferation; parameters: method as in Magee et al. [2002]; settings: similar work; ref Magee et al. [2002]; cited from earlier work
[3] = tested on: phytoheamagglutinin (PHA) activated T-cells; experiment: 3H-Thymidine incorporated T-cell proliferation assay; format: cell-based, human; settings: for IC50: read-out: T-cell proliferation inhibition (IC50± SD µg/mL); for inhibition of T-cell proliferation (in words): PHA activated T-cells, 1-100 µg/mL
Description: Lymphocytes were isolated from human heparinized blood. Briefly 10 mL of blood was aseptically collected in heparin containing tube from healthy volunteer. Blood was then mixed with equal volume (1:1) of incomplete RPMI (Roswell Park Memorial Institute) media in 50 mL sterile falcon tube. Lymphocyte separation media (LSM) (5 mL) was added into two sterile 15 mL falcon tubes and 10 mL of the mixture containing blood and RPMI was gently layered on LSM in each tube. Tubes were then centrifuged at 400 g for 20 min at room temperature. The buffy layer appeared at the interface of LSM and plasma was carefully collected and washed at 4 °C for 10 min at 300 g. The supernatant was discarded and pellet containing peripheral blood mononuclear cells (PBMNCs) was collected. Cell viability and counting was performed using trypan blue dye. ^3H-Thymidine incorporated T-cell proliferation assay was performed as described by […] et al. ([2009]). […] After that 50 μL of isolated PBMNCs were added at a concentration of (2 × 10^6 cell/mL). Cells were then stimulated by adding 50 μL of 7.5 μg/mL […]) which acts as mitogen only for T-cells among other PBMNCs. […] The wells received 50 μL cells and 150 μL of 5% FCS/RPMI served as negative control where as positive control contains 50 μL cells, 50 μL of PHA-L and 100 μL of 5% FCS/RPMI. […] Plates were then incubated for 72 h at 37 °C in 5% CO2 incubator. After 72 h, cultures were pulsed with 25 μL of 0.5 μCi/well ^3H-thymidine [Hartmann Analytic, Braunschweig, Germany], and plates were further incubated for 18 h. After incubation cells were harvested using a glass fibre filter and cell harvester [Inotech, Dottikon, Switzerland]. The level of the ^3H-thymidine incorporated into the cells was measured by a LS65000 liquid scintillation counter [Beckman coulter, Fullerton, CA, USA]. Results were expressed as mean count per minutes (CPM). The 50% inhibitory concentration (IC50) values were calculated for all tested compounds.

NIH-3T3 fibroblast cells = experiment: MTT cytotoxicity assay; format: cell-based; settings: MTT, 48 h; three doses (1, 10 and 100 µg/mL); mean ± SD of three determinations
Description: (§1) Cytotoxicity of test compounds on NIH-3T3 fibroblast cells (ATCC, Manassas, VA, USA) was evaluated by using the standard MTT colorimetric assay. Briefly 100 μL of 5 × 10^4 cells/mL in Dulbacco’s modified eagles medium (DMEM) supplemented with 10% foetal bovine serum (FBS) were plated into 96-wells flat bottom plate and incubated overnight at 37 °C in 5% CO2. Three different concentrations of test compound (1, 10 and 100 µg/mL) were added to the plate in triplicates and incubated for 48 h. 0.5 mg/mL MTT (50 µL) was added to each well, the plate was then further incubated for 4 h. MTT was aspirated and 100 µL of dimethyl sulfoxide (DMSO) was then added to each well. The extent of MTT reduction to formazan within cells was calculated by measuring the absorbance at 540 nm, using spectrophotometer (Spectra Max plus, Molecular Devices, CA, USA). The cytotoxic activity was recorded as concentration causing 50% growth inhibition (IC50) for 3T3 cells. Cycloheximide was used as standard drug.

MTT cytotoxicity assay = format: cell-based; settings: mouse
Description: as §1

[4] = zymosan activated human whole blood phagocytes, luminol probe, three doses (1, 10 and 100 µg/mL), mean ± SD of three determinations
[5] = T-cell, PHA-L activated human T-cells, 72 h + 18 h 3H-thymidine, three doses (1, 10 and 100 µg/mL), mean ± SD of three determinations
[6] = MTT, 48 h, three doses (1, 10 and 100 µg/mL), mean ± SD of three determinations, read-out: Cytotoxicity on NIH 3T3-cells (IC50± SD µg/mL)

Q: Which IC50 [1, 4] does the source give for `CC(C)Cc1ccc(C(C)C(=O)O)cc1` (centres unmarked) [Ibuprofen, reference compound] here?
A: The IC50 was 11.2 ± 1.9 µg/mL.

Q: Which “IC50 of prednisolone (lymphocyte proliferation)” value [2] does the source give for `C[C@]12C=CC(=O)C=C1CC[C@@H]1[C@@H]2[C@@H](O)C[C@@]2(C)[C@H]1CC[C@]2(O)C(=O)CO` [Prednisolone, prednisolone, reference compound] here?
A: Its value is 0.0388 µg/mL.

Q: What about the inhibition at 0.62 µg/mL ([3]; Homo sapiens, T-cell, at lowest tested concentration (0.62 µg/mL), PHA activator) of the same compound?
A: Its inhibition at 0.62 µg/mL is 64.3 ± 2%.

Q: And the IC50 [3, 5]?
A: Its IC50 is under 0.62 µg/mL.

Q: Which “ROS inhibition (IC50± SD µg/mL)” value [1, 4] does the source give for `CC[C@H](/C=C/[C@@H](C)[C@H]1CC[C@H]2[C@@H]3CC=C4C[C@@H](O[C@@H]5O[C@H](CO)[C@@H](O)[C@H](O)[C@H]5O)CC[C@]4(C)[C@H]3CC[C@]12C)C(C)C` [Compound 4, 3-O-β-D-glucopyranosyl stigmasterol] here?
A: The value was over 100 µg/mL.

Q: And the “inhibition of production of ROS (in words)” value [1]?
A: Its value is “did not inhibit”.

Q: And the “inhibition of T-cell proliferation (in words)” value [3]?
A: The value was “no inhibition”.

Q: What about the “T-cell proliferation inhibition (IC50± SD µg/mL)” value ([3]; PHA-L activated human T-cells, 72 h + 18 h 3H-thymidine, three doses (1, 10 and 100 µg/mL), mean ± SD of three determinations) of the same compound?
A: The value was over 100 µg/mL.

Q: And the “Cytotoxicity on NIH 3T3-cells (IC50± SD µg/mL)” value (NIH-3T3 fibroblast cells)?
A: Its value is over 100 µg/mL.

Q: Which IC50 [1, 4] does the source give for `CC1(C)CC[C@]2(C(=O)O)CC[C@]3(C)C(=CC[C@@H]4[C@@]5(C)CC[C@H](O)[C@@](C)(CO)[C@@H]5CC[C@]43C)[C@@H]2C1` [Compound 1, 3, 23-dihydroxy-12-oleanen-28-oic acid] here?
A: The IC50 was 24.4 ± 4.3 µg/mL.

Q: And the “inhibition of T-cell proliferation (in words)” value [3]?
A: The value was “no inhibition”.

Q: What about the IC50 [3, 5] of the same compound?
A: The IC50 was over 100 µg/mL.

Q: What about the IC50 at 48 h (MTT cytotoxicity assay) of the same compound?
A: Its IC50 at 48 h is over 100 µg/mL.

Q: Which results are given for `CC1(C)CC[C@]2(C(=O)O)CC[C@]3(C)C(=CC[C@@H]4[C@@]5(C)CC[C@H](O)C(C)(C)[C@@H]5CC[C@]43C)[C@@H]2C1` [Compound 2, 3β-hydroxylolean-12-en-28-oic]?
A: IC50 [1, 4]: 37.5 ± 0.1 µg/mL; IC50 [3, 5]: 12.6 ± 0.4 µg/mL; IC50 at 48 h (MTT cytotoxicity assay; NIH-3T3 fibroblast cells, MTT, 48 h, three doses (1, 10 and 100 µg/mL), mean ± SD of three determinations, read-out: Cytotoxicity on NIH 3T3-cells (IC50± SD µg/mL)): > 100 µg/mL

Q: With `C[C@@H]1C[C@@H]([C@H](O)CC2CC(=O)NC(=O)C2)C(=O)[C@@H](C)C1` [Cyclohexamide, Cycloheximide, reference compound] as the compound, how does the IC50 at 48 h (MTT cytotoxicity assay; [6]) read?
A: The IC50 at 48 h was 0.13 ± 0.02 µg/mL (≈ 0.462 µM).

Q: With `CC[C@H](/C=C/[C@@H](C)[C@H]1CC[C@H]2[C@@H]3CC=C4C[C@@H](O)CC[C@]4(C)[C@H]3CC[C@]12C)C(C)C` [Compound 3, stigmasterol] as the compound, how does the IC50 [1, 4] read?
A: Its IC50 is over 100 µg/mL.

Q: And the “inhibition of production of ROS (in words)” value [1]?
A: The value was “did not inhibit”.

Q: What about the IC50 (MTT cytotoxicity assay; [6]) of the same compound?
A: The IC50 was over 100 µg/mL.
